Assay results as given in patent US20070207454A1, “Novel method to identify targets for antibiotic development” (priority 2001, published 2007).

How the values were obtained:
C1 lysin = C1 lysin (Streptococcus phage C1, UniProt Q7Y3F3); test: Competition experiments with monosaccharides or cell wall carbohydrate extracts; assay type: cell-based, C1 bacteriophage; conditions: 20 mM monosaccharide
Method: FIG. 7 is a bar graph illustrating lysin pretreated with […] Sugar (GlcNAc for A, L-Rhamnose for AV, or GalNAc for C), or extracted Group A carbohydrate (10 mg/ml). The black marker indicates buffer pretreatment; the gray marker indicates sugar pretreatment; and the white marker indicates Group A carbohydrate pretreatment.
Competition experiments. The three groups of cells were pretreated with monosaccharide or buffer containing 20 mM monosaccharide (GlcNAc for A, L-rhamnose for AV, or GalNAc for C), or extracted Group A carbohydrate (10 mg/ml) prior to exposure to the C1 lysin.

PlyG lysin = assay type: cell-based, γ phage of Bacillus anthracis; conditions: for blocking of PlyG's killing ability: bacillus RSVF, competition assay
RSVF1 = conditions: cited from earlier work

Sequence of C1 lysin (Q7Y3F3 whole entry, looked up): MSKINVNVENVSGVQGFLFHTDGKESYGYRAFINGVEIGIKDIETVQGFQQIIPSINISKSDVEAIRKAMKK

CC(=O)N[C@H]1C(O)O[C@H](CO)[C@H](O)[C@@H]1O (some centres unmarked) [GalNAc, N-acetyl-galactosamine]
effect of competitor on lysin activity (C1 lysin; group C cells): no decrease

C[C@H](O)[C@H](O)[C@@H](O)[C@@H](O)C=O [L-Rhamnose]
effect of competitor on lysin activity (C1 lysin; AV cells): no decrease

CC(=O)N[C@H]1C(O)O[C@H](CO)[C@@H](O)[C@@H]1O (some centres unmarked) [N-acetylglucosamine]
concentration that could block the lethal action of PlyG (PlyG lysin; exponential phase RSVF1, 15 min at 37° C., CFU ml^-1, FIG. 10): ≤ 0.5 mM | effect of competitor on lysin activity (C1 lysin; group A cells): no decrease

CC(=O)N[C@@H]1C(O)O[C@H](CO)[C@@H](O)[C@@H]1O (some centres unmarked) [N-acetylmannosamine]
blocking of PlyG's killing ability (PlyG lysin): Neither galactose nor N-acetylmannosamine blocked

O=C[C@H](O)[C@@H](O)[C@@H](O)[C@H](O)CO [galactose]
blocking of PlyG's killing ability (PlyG lysin): Neither galactose nor N-acetylmannosamine blocked

CO[C@@H]1[C@@H](OC(N)=O)[C@@H](O)[C@H](Oc2ccc3c(O)c(NC(=O)c4ccc(O)c(CC=C(C)C)c4)c(=O)oc3c2C)OC1(C)C [novobiocin]
increase in resistance after EMS mutagenesis (RSVF1): 1,000 fold

[H]/N=C(/N)N[C@H]1[C@H](O)[C@@H](O)[C@H](O[C@@H]2O[C@@H](C)[C@](O)(C=O)[C@H]2O[C@@H]2O[C@@H](CO)[C@H](O)[C@@H](O)[C@@H]2NC)[C@@H](N/C(N)=N\[H])[C@@H]1O [streptomycin]
increase in resistance after EMS mutagenesis (RSVF1): 10,000 fold
